We go through eleven compounds from ChEMBL document CHEMBL1201862, “PubChem BioAssay data set” (2004).

Some test systems named below: OVCAR-3; SF-295; MDA-N; SN12C; 786-0; SNB-75; U-251; HCT-116; HCT-15; UACC-62; HOP-62; SF-268; SF-539; OVCAR-5; NCI-H522; OVCAR-4; K562; IGROV-1; HCC 2998.
Assay in all cases: NCI tumour cell line growth inhibition, 48 h

Molecules are shown by their SMILES.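 48-hour exposure; five concentrations; linearly interpolated endpoints. GI50: concentration for 50% inhibition of growth.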 Calls of active or inactive are those of the source. Rule as the data show it: active = GI50 up to about 1.1 µM and inactive = higher.

As to `Nc1nc(N)c2cc(Sc3ccc4ccccc4c3)ccc2n1`, the GI50 with OVCAR-3 is 5.89 µM (inactive); with SF-295, 0.509 µM (active); in the test with MDA-N it was 0.733 µM (active); in the test on SN12C it was 1.03 µM (active); in the test on 786-0 it was 0.479 µM (active); in the test on SNB-75 it was 14.4 µM (inactive). The GI50 with U-251 is 2.15 µM (inactive); in the test on HCT-116, 1.17 µM (inactive); in the test on HCT-15, 0.643 µM; in the test with UACC-62 it was 0.568 µM (active); with HOP-62, 3.56 µM (inactive); in the test on SF-268 it was 3.11 µM (inactive). Besides, the GI50 with SF-539 was 1.73 µM (inactive); in the test on OVCAR-5 it was 3.48 µM (inactive); in the test on NCI-H522 it was 2.2 µM (inactive); with OVCAR-4, 4.18 µM (inactive); in the test on K562, 0.211 µM (active).
In the case of `CSc1ncnc2c1ncn2CC(=O)C1CCC2C3CCC4=CC(=O)CCC4(C)C3CCC12C` (stereo unspecified), the GI50 was 4.25 µM (inactive) in the test on OVCAR-3; 3.21 µM (inactive) in the test with SF-295; 3.07 µM (inactive) in the test on MDA-N; 18.3 µM (inactive) in the test with SN12C; 11 µM (inactive) with 786-0; 5.19 µM (inactive) with SNB-75. For the same compound, the GI50 was 7.62 µM (inactive) in the test with U-251; 4.15 µM (inactive) with HCT-116; 4.56 µM with HCT-15; 3.21 µM (inactive) in the test on UACC-62; 2.42 µM (inactive) with HOP-62; 14.6 µM (inactive) in the test on SF-268. Moreover, the GI50 with SF-539 was 8.41 µM (inactive); with OVCAR-5 it was 23.9 µM (inactive); in the test with NCI-H522, 3.61 µM (inactive); in the test with IGROV-1, 6.95 µM (inactive); in the test on OVCAR-4, 3.49 µM (inactive); in the test with K562 it was 3.47 µM (inactive).
Take `O=c1nc(NC(c2ccccc2)(c2ccccc2)c2ccccc2)ccn1CCNCCn1ccc(NC(c2ccccc2)(c2ccccc2)c2ccccc2)nc1=O`: the GI50 is 11.9 µM (inactive) with OVCAR-3; 3.96 µM (inactive) with HCC 2998; 11.5 µM (inactive) with SF-295; 12.4 µM (inactive) in the test on SN12C; 14.1 µM (inactive) in the test with 786-0; 20.2 µM (inactive) with SNB-75. Further, the GI50 is 4.33 µM (inactive) in the test on U-251; 3.92 µM (inactive) in the test on HCT-116; greater than 100 µM with HCT-15; 4.42 µM (inactive) with UACC-62; 15.5 µM (inactive) in the test on HOP-62; 4.84 µM (inactive) in the test with SF-268. In addition, the GI50 in the test on SF-539 was 11.3 µM (inactive); with OVCAR-5, 31 µM (inactive); in the test with NCI-H522 it was 4.66 µM (inactive); with IGROV-1, 5.15 µM (inactive); with OVCAR-4 it was 14.2 µM (inactive); in the test on K562, 3.46 µM (inactive).
With `CC(C)=NN/C(=N\c1ccc(Cl)cc1)NS(=O)(=O)c1ccc(Oc2cccc(Cl)c2C#N)cc1`, the GI50 in the test on OVCAR-3, in the test on SF-295, in the test on MDA-N, in the test on SN12C, with 786-0 and in the test with U-251 was > 100 µM (inactive) throughout. Besides, the GI50 was > 100 µM (inactive) with HCT-116; greater than 100 µM with HCT-15; > 100 µM (inactive) in the test on UACC-62; > 100 µM (inactive) in the test on HOP-62; > 100 µM (inactive) in the test on SF-268; > 100 µM (inactive) with OVCAR-5. The GI50 in the test with NCI-H522, in the test on IGROV-1, in the test on OVCAR-4 and in the test on K562 was > 100 µM (inactive) in each case.
In the case of `CN(NC1=NCCO1)c1ccc2ccccc2c1`, the GI50 in the test with OVCAR-3 was 23.6 µM (inactive); in the test on HCC 2998, 38.8 µM (inactive); with SF-295, > 100 µM (inactive); in the test with SN12C, 62.8 µM (inactive); in the test on 786-0, 54.6 µM (inactive); with SNB-75, 17.5 µM (inactive). For the same compound, the GI50 in the test on U-251 is 59.7 µM (inactive); with HCT-116, 35 µM (inactive); with HCT-15 it was 49.4 µM; in the test with UACC-62 it was 49.1 µM (inactive); with HOP-62, 80.7 µM (inactive); in the test with SF-268 it was 47.5 µM (inactive). The GI50 in the test on SF-539 was 23.6 µM (inactive); in the test on OVCAR-5 it was 80 µM (inactive); with NCI-H522 it was 29.9 µM (inactive); in the test on IGROV-1, 39.7 µM (inactive); in the test with OVCAR-4, 42 µM (inactive); with K562, 28.3 µM (inactive).
For `CN(CC(=O)O)c1ncc2c(n1)-c1ccccc1CC2`, the GI50 was > 100 µM (inactive) in the test on OVCAR-3; > 100 µM (inactive) in the test with SF-295; > 100 µM (inactive) in the test with MDA-N; > 100 µM (inactive) in the test on SN12C; > 100 µM (inactive) in the test with 786-0; 74.8 µM (inactive) in the test with SNB-75. Moreover, the GI50 with U-251 is > 100 µM (inactive); in the test on HCT-116, > 100 µM (inactive); in the test on HCT-15 it was greater than 100 µM; with UACC-62, > 100 µM (inactive); with HOP-62, > 100 µM (inactive); in the test with SF-268, > 100 µM (inactive). Further, the GI50 in the test on SF-539, with OVCAR-5, in the test on NCI-H522, in the test on IGROV-1, with OVCAR-4 and in the test with K562 was > 100 µM (inactive) each time.
Regarding `[N-]=[N+]=CC(=O)C1CCN(c2ccccc2)C1=O` (stereo unspecified), the GI50 with OVCAR-3, in the test on HCC 2998, in the test with SF-295, in the test on MDA-N, in the test with SN12C and in the test with 786-0 was > 10 µM (inactive) each time. For the same compound, the GI50 with U-251 is > 10 µM (inactive); in the test on HCT-116, > 10 µM (inactive); in the test on HCT-15, greater than 10 µM; with UACC-62, > 10 µM (inactive); in the test on HOP-62 it was > 10 µM (inactive); in the test on SF-268 it was > 10 µM (inactive). Moreover, the GI50 in the test with SF-539, in the test on OVCAR-5, with IGROV-1, in the test with OVCAR-4 and in the test with K562 was > 10 µM (inactive) throughout.
Regarding `CN(C)CCCn1c2ccccc2c2cnccc21`, the GI50 was 42.9 µM (inactive) in the test on OVCAR-3; 46.5 µM (inactive) in the test on SF-295; 25.2 µM (inactive) in the test with MDA-N; 17.1 µM (inactive) in the test on SN12C; 27.7 µM (inactive) with 786-0; 66.1 µM (inactive) in the test with SNB-75. For the same compound, the GI50 with U-251 was 39.1 µM (inactive); in the test on HCT-116 it was 19.7 µM (inactive); in the test on HCT-15, 43.7 µM; in the test with UACC-62, 40.4 µM (inactive); in the test on HOP-62, 60.4 µM (inactive); in the test with SF-268, 50.7 µM (inactive). Moreover, the GI50 in the test with SF-539 is 20.6 µM (inactive); with OVCAR-5 it was 38.4 µM (inactive); with NCI-H522, 23.8 µM (inactive); with IGROV-1, 64.7 µM (inactive); in the test on OVCAR-4, 39.6 µM (inactive); with K562, 26.2 µM (inactive).
For the compound `Cc1ccc(O)c(-c2cc(-c3cccc(Cl)c3)c(C#N)c(N)n2)c1`, the GI50 in the test with OVCAR-3 was 38.5 µM (inactive); with SF-295, 14.8 µM (inactive); with MDA-N, 14.5 µM (inactive); with SN12C, 20.9 µM (inactive); in the test on 786-0 it was 20.4 µM (inactive); in the test with U-251, 15.6 µM (inactive). In addition, the GI50 is 16.2 µM (inactive) with HCT-116; 12.2 µM with HCT-15; 16.1 µM (inactive) in the test on UACC-62; 20.6 µM (inactive) in the test with HOP-62; 18.6 µM (inactive) with SF-268; 19.5 µM (inactive) in the test on SF-539. In addition, the GI50 in the test with OVCAR-5 was 24 µM (inactive); with NCI-H522, 12.5 µM (inactive); in the test with IGROV-1, 6.93 µM (inactive); with OVCAR-4, 15.9 µM (inactive); in the test with K562 it was 21.5 µM (inactive).
Take `CC(C)CCCC(C)[C@H]1CC[C@H]2n3c(nc4ccccc43)CCC[C@]12C` (stereo partly specified): the GI50 with OVCAR-3 was 17.4 µM (inactive); with SF-295, 16.8 µM (inactive); in the test on MDA-N, 16.2 µM (inactive); with SN12C it was 15.9 µM (inactive); with 786-0, 17.5 µM (inactive); with SNB-75, 14.6 µM (inactive). In addition, the GI50 with U-251 was 19.2 µM (inactive); with HCT-116 it was 12.9 µM (inactive); in the test on HCT-15, 15 µM; in the test on UACC-62, 16.2 µM (inactive); in the test on HOP-62 it was 20.7 µM (inactive); with SF-268, 20.3 µM (inactive). Besides, the GI50 was 18.8 µM (inactive) with SF-539, 17 µM (inactive) in the test on IGROV-1, 16 µM (inactive) with OVCAR-4 and 15.6 µM (inactive) in the test with K562.
As to `CC(=O)OCC1OC(OC2CC3C(C)(C)C(OC(C)=O)CC[C@]3(C)C3CCC45CC4(CC[C@H]5C(C)CC(O)[C@@H](O)C(C)(C)O)[C@]23C)C(O)C(O)C1O` (stereo partly specified), the GI50 is 7.19 µM (inactive) in the test on OVCAR-3; 6.84 µM (inactive) with HCC 2998; 7.93 µM (inactive) with SF-295; 7.05 µM (inactive) with SN12C; 7.82 µM (inactive) in the test on 786-0; 6.18 µM (inactive) in the test on SNB-75. The GI50 was 6.28 µM (inactive) with U-251; 7.64 µM (inactive) with HCT-116; 7.64 µM with HCT-15; 6.25 µM (inactive) in the test with UACC-62; 5.86 µM (inactive) in the test with HOP-62; 8.11 µM (inactive) in the test on SF-268. Moreover, the GI50 is 7.31 µM (inactive) in the test on SF-539; 7.66 µM (inactive) in the test with OVCAR-5; 1.82 µM (inactive) with NCI-H522; 7.36 µM (inactive) with IGROV-1; 6.67 µM (inactive) in the test with OVCAR-4; 5.55 µM (inactive) in the test with K562.
